For one assay, the target named is T1, Adenosine receptor A2b (Homo sapiens, UniProt P29275).
T1 sequence (P29275 whole entry): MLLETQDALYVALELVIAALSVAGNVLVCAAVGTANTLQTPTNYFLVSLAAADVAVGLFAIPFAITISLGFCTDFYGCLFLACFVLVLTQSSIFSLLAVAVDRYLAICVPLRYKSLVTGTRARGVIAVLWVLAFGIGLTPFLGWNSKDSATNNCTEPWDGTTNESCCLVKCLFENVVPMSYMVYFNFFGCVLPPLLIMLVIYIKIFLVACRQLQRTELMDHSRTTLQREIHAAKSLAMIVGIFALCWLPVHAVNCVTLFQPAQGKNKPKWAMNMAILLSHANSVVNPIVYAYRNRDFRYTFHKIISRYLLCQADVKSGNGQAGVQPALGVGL
As to the kind of experiment: Displacement of [3H] DPCPX from human recombinant A2B adenosine receptor expressed in HEK293 cells incubated for 30 mins by radioligand binding competition assay. It is filed as cell-based. (In general: Loss of bound radioactivity is the signal in a displacement assay; it reports binding, not function.)

Assay [1] concerns the target T2, Adenosine receptor A1 (Homo sapiens, UniProt P30542).
T2 sequence (P30542 whole entry): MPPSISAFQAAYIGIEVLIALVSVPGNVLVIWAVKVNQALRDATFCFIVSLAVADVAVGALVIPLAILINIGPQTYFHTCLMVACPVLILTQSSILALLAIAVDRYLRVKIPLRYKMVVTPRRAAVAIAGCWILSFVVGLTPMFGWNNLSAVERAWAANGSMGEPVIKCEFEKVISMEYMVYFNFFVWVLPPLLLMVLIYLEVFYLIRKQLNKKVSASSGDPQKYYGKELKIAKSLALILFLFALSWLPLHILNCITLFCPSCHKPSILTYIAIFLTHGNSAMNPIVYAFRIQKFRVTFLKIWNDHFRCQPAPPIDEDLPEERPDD
As to the kind of experiment: Displacement of [3H] DPCPX from human recombinant A1 adenosine receptor expressed in CHO cells incubated for 60 mins by radioligand binding competition assay. In kind it is cell-based.

For assay [2], the target named is T3, Adenosine receptor A2a (Homo sapiens, UniProt P29274). As to the kind of experiment: Displacement of [3H] ZM241385 from human recombinant A2A adenosine receptor expressed in HeLa cells incubated for 30 mins by radioligand binding competition assay. It is filed as cell-based.
Another assay concerns the target T4, Adenosine receptor A3 (Homo sapiens, UniProt P0DMS8).
T4 sequence (P0DMS8 whole entry): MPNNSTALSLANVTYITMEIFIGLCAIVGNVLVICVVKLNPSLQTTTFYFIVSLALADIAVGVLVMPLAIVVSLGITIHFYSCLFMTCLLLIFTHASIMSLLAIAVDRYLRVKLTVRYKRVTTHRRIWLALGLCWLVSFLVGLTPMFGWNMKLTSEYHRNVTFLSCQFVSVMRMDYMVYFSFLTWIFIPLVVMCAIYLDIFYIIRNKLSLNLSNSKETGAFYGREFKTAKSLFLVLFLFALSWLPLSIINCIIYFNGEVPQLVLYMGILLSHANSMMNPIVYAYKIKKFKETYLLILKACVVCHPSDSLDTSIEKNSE
Briefly: Displacement of [3H] NECA from human recombinant A3 receptor expressed in HeLa cells incubated for 180 mins by radioligand binding competition assay. In kind it is cell-based.

The target in assay [3] is T2, Adenosine receptor A1. Briefly: Antagonist activity at human recombinant adenosine A1 receptor transfected in HEK293 cells co-transfected with Galpha15/16 assessed as intracellular calcium change incubated for 10 mins by microplate reader method. It is filed as functional, cell-based.
The target of assay [4] is T3, Adenosine receptor A2a. As to the kind of experiment: Antagonist activity at human recombinant adenosine A2A receptor transfected in HEK293 cells co-transfected with Galpha15/16 assessed as intracellular calcium change incubated for 10 mins by microplate reader method. It is filed as functional, cell-based. On the technique in general: Calcium assays in cells follow changes in intracellular calcium, usually with a dye or a luminescent sensor.

What is called Ki is a measure of affinity in units of concentration, obtained from inhibition or displacement. What is called IC50 is the point on the concentration scale where inhibition reaches its midpoint.

T3 sequence (P29274 whole entry): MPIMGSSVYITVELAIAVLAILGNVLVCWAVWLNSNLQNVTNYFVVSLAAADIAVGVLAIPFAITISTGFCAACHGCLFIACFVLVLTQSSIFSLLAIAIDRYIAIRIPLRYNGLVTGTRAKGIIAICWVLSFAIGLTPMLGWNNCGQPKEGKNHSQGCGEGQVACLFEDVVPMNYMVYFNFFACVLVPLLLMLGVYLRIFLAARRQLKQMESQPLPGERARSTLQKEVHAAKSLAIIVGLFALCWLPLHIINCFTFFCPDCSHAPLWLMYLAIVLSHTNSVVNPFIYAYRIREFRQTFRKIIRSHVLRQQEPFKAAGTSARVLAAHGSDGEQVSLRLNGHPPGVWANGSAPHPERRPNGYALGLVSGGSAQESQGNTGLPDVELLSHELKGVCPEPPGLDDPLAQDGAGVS

`Cn1nccc1-c1nc2c(-c3ccc(=O)n(C)c3)cnc(N)n2n1`: the Ki is greater than 10000 nM on Adenosine receptor A2b, 2970 nM on Adenosine receptor A1 [1], 797 nM at Adenosine receptor A2a [2] and greater than 10000 nM on Adenosine receptor A3.
Turning to `Cn1cc(-c2cnc(N)nc2-c2ccco2)ccc1=O`, the Ki on Adenosine receptor A2b was 58.9 nM; on Adenosine receptor A1 [1], 88.6 nM; on Adenosine receptor A2a [2], 26.9 nM; at Adenosine receptor A3 it was greater than 10000 nM.
The matching figures for `Cc1cnc(-c2nc3c(-c4ccc(=O)n(C)c4)cnc(N)n3n2)s1`: 9920 nM, 21.9 nM, 43.9 nM and 2930 nM.
The matching figures for `Cn1cc(-c2cnc(N)n3nc(-c4ccccn4)nc23)ccc1=O`: greater than 10000 nM, 37.6 nM, 62.4 nM and greater than 10000 nM.
The like results for `Cc1csc(-c2nc3c(-c4ccc(=O)n(C)c4)cnc(N)n3n2)n1` were, in that order, greater than 10000 nM, 926 nM, 1030 nM and greater than 10000 nM.
With `Cn1ccc(-c2nc3c(-c4ccc(=O)n(C)c4)cnc(N)n3n2)n1`, the Ki is greater than 10000 nM on Adenosine receptor A2b, 722 nM at Adenosine receptor A1 [1], 3430 nM at Adenosine receptor A2a [2] and greater than 10000 nM at Adenosine receptor A3.
For the compound `Cc1cccc(-c2nc3c(-c4ccc(=O)n(C)c4)cnc(N)n3n2)n1`, the Ki at Adenosine receptor A2b was greater than 10000 nM; at Adenosine receptor A1 [1] it was 1720 nM; on Adenosine receptor A2a [2], 3770 nM; at Adenosine receptor A3 it was greater than 10000 nM.
As for `Cc1ccc(-c2nc3c(-c4ccc(=O)n(C)c4)cnc(N)n3n2)o1`, the Ki is greater than 10000 nM at Adenosine receptor A2b, 88.4 nM at Adenosine receptor A1 [1], 448 nM at Adenosine receptor A2a [2] and 2960 nM at Adenosine receptor A3.
The matching figures for `Cn1cc(-c2cnc(N)n3nc(-c4nccs4)nc23)ccc1=O`: 1590 nM, 78 nM, 84.6 nM and greater than 10000 nM.
On to `Cn1cc(-c2cnc(N)n3nc(-c4ccco4)nc23)ccc1=O`, for which the inhibition constant Ki is 491 nM at Adenosine receptor A2b, 24.2 nM on Adenosine receptor A1 [1] and 5.58 nM at Adenosine receptor A2a [2]. The half-inhibitory concentration (IC50) on Adenosine receptor A1 [3] amounted to 25.9 nM; at Adenosine receptor A2a [4], 5.72 nM.

Source of the values: ChEMBL document CHEMBL5042554, “Discovery of Pyridone-Substituted Triazolopyrimidine Dual A2A/A1 AR Antagonists for the Treatment of Ischemic Stroke” (ACS Med Chem Lett, 2022).
